According to patent US6545009B1, “Retinoid-related receptor function regulating agent” (Takeda Chemical Industries, Ltd., priority 1998, dated 2003):

Compound | melting point
CCOc1ccc(-c2csc(-c3cccc(C(=O)OC)c3)n2)cc1 [Example 83, methyl 3-[4-(4-ethoxyphenyl)-2-thiazolyl]benzoate] | 192 to 193 °C
COC(=O)c1cccc(-c2nc(-c3ccc(F)cc3F)cs2)c1 [Example 46, methyl 3-[4-(2,4-difluorophenyl)-2-thiazolyl]benzoate] | 121 to 122 °C
CCOC(=O)c1ccc(-c2coc(-c3ccc(Cl)cc3)n2)cc1 [Example 6, ethyl 4-[2-(4-chlorophenyl)-4-oxazolyl)benzoate] | 153 to 154 °C
CC(C)(C)c1ccc(-c2csc(-c3cccc(C(=O)O)c3)n2)cc1 [Example 98, 3-[4-(4-t-butylphenyl)-2-thiazolyl]benzoic acid] | 250 to 251 °C
CCOC(=O)c1ccc(-c2csc(-c3ccc(Cl)cc3)n2)s1 [Example 39, ethyl 5-[2-(4-chlorophenyl)-4-thiazolyl]-2-thienylcarboxylate] | 234 to 236 °C
Br.COC(=O)c1ccc(-c2nc(-c3ccccn3)cs2)cc1 [Example 38, methyl 4-[4-(2-pyridyl)-2-thiazolyl]benzoate hydrobromide] | 243 to 244 °C
O=C(O)c1ccc(-c2nc(-c3ccc(OC(F)F)cc3)co2)cc1 [Example 24, 4-[4-(4-difluoromethoxylphenyl)-2-oxazolyl]benzoic acid] | 261 to 262 °C
O=C(O)c1ccc(-c2ncc(-c3ccc(Cl)cc3)s2)cc1 [Example 114, 4-[5-(4-chlorophenyl)-2-thiazolyl]benzoic acid] | > 300 °C
O=C(O)c1ccc(-c2nc(-c3ccccc3C(F)(F)F)cs2)cc1 [Example 60, 4-[4-(2-trifluoromethylphenyl)-2-thiazolyl]benzoic acid] | 225 to 227 °C
O=C(O)c1ccc(-c2nc(-c3ccc(Cl)s3)cs2)cc1 [Example 53, 4-[4-(5-chloro-2-thienyl)-2-thiazolyl]benzoic acid] | 283 to 284 °C
CCOC(=O)c1ccc(-c2cnc(-c3ccc(C(F)(F)F)cc3)o2)cc1 [Example 107, ethyl 4-[2-(4-trifluoromethylphenyl)-5-oxazolyl]benzoate] | 142 to 143 °C
COC(=O)c1ccc(-c2nc(-c3cc(C(F)(F)F)cc(C(F)(F)F)c3)co2)cc1 [Example 17, methyl 4-[4-[3,5-bis(trifluoromethyl)phenyl]-2-oxazolyl]benzoate] | 180 to 181 °C
CCOC(=O)c1cccc(-c2nc(-c3ccc(C(C)C)cc3)cs2)c1 [Example 86, ethyl 3-[4-(4-isopropylphenyl)-2-thiazolyl]benzoate] | 91 to 92 °C
COC(=O)c1cccc(-c2nc(-c3ccc(C(F)(F)F)cc3)co2)c1 [Example 21, methyl 3-[4-(4-trifluoromethylphenyl)-2-oxazolyl]benzoate] | 151 to 152 °C
O=C(O)c1ccc(-c2nc(-c3ccc(Br)cc3)cs2)cc1 [Example 89, 4-[4-(4-bromophenyl)-2-thiazolyl]benzoic acid] | > 300 °C
O=C(O)c1ccc(-c2coc(-c3ccc(Cl)cc3)n2)cc1 [Example 13, 4-[2-(4-chlorophenyl)-4-oxazolyl]benzoic acid] | 288 to 289 °C
COC(=O)c1ccc(-c2nc(-c3ccc(C(C)C)cc3)cs2)cc1 [Example 87, methyl 4-[4-(4-isopropylphenyl)-2-thiazolyl]benzoate] | 134 to 135 °C
CCOC(=O)c1ccc(-c2csc(-c3ccc(Cl)cc3)n2)cc1 [Example 103, ethyl 4-[2-(4-chlorophenyl)-4-thiazolyl)benzoate] | 105 to 106 °C

Compound | melting point
CCOC(=O)c1cccc(-c2nc(-c3ccc(C(C)(C)C)cc3)cs2)c1 [Example 84, ethyl 3-[4-(4-t-butylphenyl)-2-thiazolyl]benzoate] | 96 to 97 °C
COC(=O)c1ccc(-c2nc(-c3c(F)c(F)c(F)c(F)c3F)cs2)cc1 [Example 42, methyl 4-[4-(2,3,4,5,6-pentafluorophenyl)-2-thiazolyl]benzoate] | 141 to 142 °C
O=C(O)c1ccc(-c2csc(-c3ccccc3)n2)cc1 [Reference Example 9, 4-(2-phenyl-4-thiazolyl]benzoic acid] | 245 to 248 °C
CCOC(=O)c1ccc(-c2ncc(-c3ccc(Cl)cc3)s2)cc1 [Example 112, ethyl 4-[5-(4-chlorophenyl)-2-thiazolyl]benzoate] | 167 to 168 °C
COC(=O)c1ccc(-c2nc(-c3cccc(C(F)(F)F)c3)co2)cc1 [Example 16, methyl 4-[4-(3-trifluoromethylphenyl)-2-oxazolyl]benzoate] | 134 to 135 °C
O=C(O)c1cccc(-c2nc(-c3ccc(C(F)(F)F)cc3)cs2)c1 [Example 67, 3-[4-(4-trifluoromethylphenyl)-2-thiazolyl]benzoic acid] | 230 to 231 °C
COC(=O)c1ccc(-c2nc(-c3ccc(C(F)(F)F)cc3)co2)cc1 [Example 2, methyl 4-[4-(4-trifluoromethylphenyl)-2-oxazolyl]benzoate] | 182 to 183 °C
CCOC(=O)c1ccc(-c2coc(-c3ccccc3)n2)cc1 [Example 5, ethyl 4-(2-phenyl-4-oxazolyl)benzoate] | 110 to 112 °C
COC(=O)c1ccc(-c2nc(-c3ccc(OC(F)F)cc3)cs2)cc1 [Example 28, methyl 4-[4-(4-difluoromethoxyphenyl)-2-thiazolyl]benzoate] | 146 to 148 °C
O=C(O)c1ccc(-c2nc(-c3ccccc3)co2)cc1 [Example 11, 4-(4-phenyl-2-oxazolyl]benzoic acid] | 275 to 276 °C
CCOC(=O)c1cccc(-c2nc(-c3ccc(OCC)cc3)cs2)c1 [Example 82, ethyl 3-[4-(4-ethoxyphenyl)-2-thiazolyl]benzoate] | 108 to 110 °C
Br.COC(=O)c1ccc(-c2nc(-c3cccnc3)cs2)cc1 [Example 34, methyl 4-[4-(3-pyridyl)-2-thiazolyl]benzoate hydrobromide] | 241 to 242 °C
COC(=O)c1ccc(-c2nc(-c3ccc(Cl)s3)cs2)cc1 [Example 30, methyl 4-[4-(5-chloro-2-thienyl)-2-thiazolyl]benzoate] | 171 to 172 °C
COc1ccc(-c2coc(-c3ccc(C(=O)O)cc3)n2)cc1 [Example 10, 4-[4-(4-methoxyphenyl)-2-oxazolyl]benzoic acid] | 286 to 287 °C
COC(=O)c1ccc(-c2nc(-c3ccc(OC(F)(F)F)cc3)cs2)cc1 [Example 41, methyl 4-[4-(4-trifluoromethoxyphenyl)-2-thiazolyl]benzoate] | 138 to 139 °C
CCOC(=O)c1ccc(-c2csc(-c3ccccc3)n2)cc1 [Example 102, ethyl 4-(2-phenyl-4-thiazolyl]benzoate] | 72 to 73 °C
O=C(O)c1ccc(-c2nc(-c3ccncc3)cs2)cc1 [Example 58, 4-[4-(4-pyridyl)-2-thiazolyl]benzoic acid] | > 300 °C
COC(=O)c1ccc(-c2nc(-c3ccc(C(C)(C)C)cc3)cs2)cc1 [Example 85, methyl 4-[4-(4-t-butylphenyl)-2-thiazolyl]benzoate] | 154 to 155 °C
